According to article doi:10.1101/2025.05.09.653172, “Alternative Splicing in TRPA1 Drives Sensory Adaptation to Electrophiles in Drosophilids” (bioRxiv, 2025):

Key:
Test in all cases: two-electrode voltage clamp, Xenopus oocytes, heat-normalized AITC-evoked current
[1] = target: T1, DmTRPA1-D (Drosophila melanogaster, UniProt H0USS9); type: cell-based; settings: read-out: TRPA1-DL / DmTRPA1-D
T1 construct: gene TrpA1; full CDS of splice isoform D (cDNA gift from Marco Gallio lab) in pOX(+), cRNA-injected Xenopus laevis oocytes
T1 sequence (H0USS9 1-1231): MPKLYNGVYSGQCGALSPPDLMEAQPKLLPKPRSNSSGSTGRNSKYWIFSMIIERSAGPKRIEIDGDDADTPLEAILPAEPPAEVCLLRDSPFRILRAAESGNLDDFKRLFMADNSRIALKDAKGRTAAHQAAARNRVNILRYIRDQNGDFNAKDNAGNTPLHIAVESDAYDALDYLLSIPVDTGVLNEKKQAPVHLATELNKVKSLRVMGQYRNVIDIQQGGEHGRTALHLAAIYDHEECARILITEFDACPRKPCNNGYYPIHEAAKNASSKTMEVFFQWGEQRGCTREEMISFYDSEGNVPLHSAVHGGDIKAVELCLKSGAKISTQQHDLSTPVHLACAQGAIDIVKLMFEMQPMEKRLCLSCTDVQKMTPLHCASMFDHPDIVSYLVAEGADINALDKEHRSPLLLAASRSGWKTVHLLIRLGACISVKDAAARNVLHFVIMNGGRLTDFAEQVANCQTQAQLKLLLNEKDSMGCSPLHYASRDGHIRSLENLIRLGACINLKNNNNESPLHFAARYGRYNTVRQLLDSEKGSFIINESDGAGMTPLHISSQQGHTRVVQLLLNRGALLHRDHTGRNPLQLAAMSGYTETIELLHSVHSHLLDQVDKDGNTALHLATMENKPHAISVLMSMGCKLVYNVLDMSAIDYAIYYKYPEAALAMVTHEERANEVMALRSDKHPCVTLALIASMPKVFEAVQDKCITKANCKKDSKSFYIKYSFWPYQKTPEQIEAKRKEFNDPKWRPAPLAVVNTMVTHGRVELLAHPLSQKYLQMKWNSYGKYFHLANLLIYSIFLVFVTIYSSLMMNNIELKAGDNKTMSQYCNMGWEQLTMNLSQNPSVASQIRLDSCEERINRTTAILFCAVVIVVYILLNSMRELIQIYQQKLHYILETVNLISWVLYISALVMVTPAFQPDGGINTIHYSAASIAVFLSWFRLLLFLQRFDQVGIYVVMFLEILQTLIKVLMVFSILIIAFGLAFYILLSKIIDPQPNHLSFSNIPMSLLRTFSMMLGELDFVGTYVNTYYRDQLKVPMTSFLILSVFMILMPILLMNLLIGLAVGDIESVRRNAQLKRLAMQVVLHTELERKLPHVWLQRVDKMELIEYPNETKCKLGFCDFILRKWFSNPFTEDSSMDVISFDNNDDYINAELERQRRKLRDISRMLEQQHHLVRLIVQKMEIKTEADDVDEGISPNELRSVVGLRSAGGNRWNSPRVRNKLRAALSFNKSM
Source text: two-electrode voltage clamp, Xenopus oocytes, heat-normalized AITC-evoked current on DmTRPA1-D

[2] = test system: T2, SpTRPA1-CL; type: cell-based, Scaptomyza pallida; settings: agonist (electrophile); ND96 pH 7.4, -60 mV; after prior heat stimulus (>40 °C); read-out: TRPA1-CL / SpTRPA1-CL
T2 construct: gene TrpA1; full CDS of splice isoform CL (cDNA from adult labella) in pOX(+), cRNA-injected Xenopus laevis oocytes
Source text: two-electrode voltage clamp, Xenopus oocytes, heat-normalized AITC-evoked current on SpTRPA1-CL

[3] = test system: T3, SfTRPA1-CL; type: cell-based, Scaptomyza flava; settings: agonist (electrophile); ND96 pH 7.4, -60 mV; after prior heat stimulus (>40 °C); read-out: TRPA1-CL / SfTRPA1-CL
T3 construct: gene TrpA1; full CDS of splice isoform CL (artificial synthesis, Genscript) in pOX(+), cRNA-injected Xenopus laevis oocytes
Source text: two-electrode voltage clamp, Xenopus oocytes, heat-normalized AITC-evoked current on SfTRPA1-CL

[4] = target: T4, DmTRPA1-C (Drosophila melanogaster, UniProt G8IQ59); type: cell-based; settings: read-out: TRPA1-CL / DmTRPA1-C
T4 construct: gene TrpA1; full CDS of splice isoform C (cDNA from third-instar larva whole body) in pOX(+), cRNA-injected Xenopus laevis oocytes
T4 sequence (G8IQ59 1-1232): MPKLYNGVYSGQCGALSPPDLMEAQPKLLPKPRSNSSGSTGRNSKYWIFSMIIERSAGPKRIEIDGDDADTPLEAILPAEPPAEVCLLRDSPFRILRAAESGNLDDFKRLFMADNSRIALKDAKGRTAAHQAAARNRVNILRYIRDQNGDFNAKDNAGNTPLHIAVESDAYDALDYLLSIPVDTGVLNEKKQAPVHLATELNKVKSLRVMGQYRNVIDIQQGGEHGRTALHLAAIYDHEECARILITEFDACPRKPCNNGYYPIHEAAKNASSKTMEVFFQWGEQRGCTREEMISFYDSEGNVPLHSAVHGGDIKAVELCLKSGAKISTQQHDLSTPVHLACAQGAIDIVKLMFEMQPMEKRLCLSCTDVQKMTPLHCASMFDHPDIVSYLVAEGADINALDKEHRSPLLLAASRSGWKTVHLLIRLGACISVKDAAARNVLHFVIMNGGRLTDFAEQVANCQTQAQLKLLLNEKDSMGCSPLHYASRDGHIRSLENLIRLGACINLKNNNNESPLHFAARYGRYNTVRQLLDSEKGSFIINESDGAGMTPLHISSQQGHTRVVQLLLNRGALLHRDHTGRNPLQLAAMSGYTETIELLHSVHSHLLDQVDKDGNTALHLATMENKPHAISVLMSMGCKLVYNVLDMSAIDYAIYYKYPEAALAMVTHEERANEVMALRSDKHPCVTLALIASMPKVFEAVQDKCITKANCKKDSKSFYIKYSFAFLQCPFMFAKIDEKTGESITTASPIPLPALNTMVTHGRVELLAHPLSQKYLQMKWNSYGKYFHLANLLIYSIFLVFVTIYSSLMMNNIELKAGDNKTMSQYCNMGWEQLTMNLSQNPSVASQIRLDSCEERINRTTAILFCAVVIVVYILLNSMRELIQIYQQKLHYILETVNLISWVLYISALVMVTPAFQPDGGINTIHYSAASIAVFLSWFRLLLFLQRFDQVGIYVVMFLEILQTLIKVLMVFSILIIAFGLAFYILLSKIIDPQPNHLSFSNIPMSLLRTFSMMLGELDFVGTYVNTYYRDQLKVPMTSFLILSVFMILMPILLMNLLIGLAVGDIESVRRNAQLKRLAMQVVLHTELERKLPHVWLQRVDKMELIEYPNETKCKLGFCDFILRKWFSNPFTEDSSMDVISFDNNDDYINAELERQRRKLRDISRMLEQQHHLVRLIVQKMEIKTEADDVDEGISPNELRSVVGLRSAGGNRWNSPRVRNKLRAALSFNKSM
Source text: two-electrode voltage clamp, Xenopus oocytes, heat-normalized AITC-evoked current on DmTRPA1-C

[5] = test system: T5, SfTRPA1-DL; type: cell-based, Scaptomyza flava; settings: agonist (electrophile); ND96 pH 7.4, -60 mV; after prior heat stimulus (>40 °C); read-out: TRPA1-DL / SfTRPA1-DL
T5 construct: gene TrpA1; full CDS of splice isoform DL (artificial synthesis, Genscript) in pOX(+), cRNA-injected Xenopus laevis oocytes
Source text: two-electrode voltage clamp, Xenopus oocytes, heat-normalized AITC-evoked current on SfTRPA1-DL

[6] = test system: T6, SpTRPA1-DL; type: cell-based, Scaptomyza pallida; settings: agonist (electrophile); ND96 pH 7.4, -60 mV; after prior heat stimulus (>40 °C); read-out: TRPA1-DL / SpTRPA1-DL
T6 construct: gene TrpA1; full CDS of splice isoform DL (cDNA from adult tarsi) in pOX(+), cRNA-injected Xenopus laevis oocytes
Source text: two-electrode voltage clamp, Xenopus oocytes, heat-normalized AITC-evoked current on SpTRPA1-DL

C=CCN=C=S [allyl isothiocyanate]
EC50 [1]: 341 ± 92 µM
EC50 [2]: 29 ± 15 µM
EC50 [3]: 65 ± 55 µM
EC50 [4]: 8.6 ± 4.3 µM
EC50 [5]: 316 ± 31 µM
EC50 [6]: 103 ± 15 µM
